In patent publication US20220098525A1, “LAUNDRY DETERGENT” (Conopco, Inc., d/b/a UNILEVER, priority 2019, published 2022):
Where two headings read alike, the source gives them in different places.

Tests used:
Format in all cases: physicochemical
[1] = hydrolysis in the region of pH 4 to 10
[2] = dissolution of dye in water for pKa measurement; conditions: approximately 2×10^−5 mol L^−1 in water, conditions analogous to the reference dye
Description: (§1) pKa values (acid dissociation constant) were measured for the reference dye by dissolving approximately 2×10^−5 mol L^−1 of the dye in water then varying the pH from 9.6 to 1.9 and observing the changes in the UV-VIS spectrum at 570 nm. The pKa values are higher than expected for a free —COOH group which would be 3 to 4 and is attributed to the effect of the alkyl chains.

[3] = pKa measured by pH variation and UV-VIS spectrum at 570 nm; conditions: water, pH 4, approximately 2×10^−5 mol L^−1 dye in water, pH varied 9.6 to 1.9, UV-VIS at 570 nm; dual pKa fit for the 2 -COOH groups
Description: as §1

SMILES	hydrolysis [1]	hydrolysis ([1]; listed as inventive compound)	dissolution in water [2]	pKa [3]
C=COCCOCCN(CCOCCO)c1ccc(/N=N/c2sc(C#N)c(C)c2C#N)c(C)c1 [inventive]	not observed	resistant to hydrolysis	did not dissolve	
CCCCC/C=C/CC(CC(=O)OCCOCCN(CCOCCOC(=O)CC(C/C=C/CCCCC)C(=O)O)c1ccc(/N=N/c2sc(C#N)c(C)c2C#N)c(C)c1)C(=O)O (centres unmarked) [reference, reference compound]	observed			7.5
